According to the supplement of paper PMC9912026:

Test system: A375_aEGFR2
Assay: pERK immunofluorescence normalised to no-drug reference (=1); higher = more ERK phosphorylation (less pathway inhibition)
Conditions: drug treatment time 24 h, EGF time 8 h
Protocol: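 A375 CRISPRa-EGFR (A375_aEGFR2) or HT29 cells were treated with two-drug dose combinations (vemurafenib, LY3009120, cobimetinib) for 24 h, then stimulated with EGF (100 ng/mL) or mock medium for 8 h. pERK (T202/Y204) was measured by immunofluorescence as the cytosolic population average, normalised to an untreated no-drug reference of the block (=1). Averages of 2 technical replicates. A375 in 5% FBS, HT29 in 10% FBS.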

CNc1ncc2cc(-c3cc(NC(=O)NCCC(C)(C)C)c(F)cc3C)c(C)nc2n1 + O=C(c1ccc(F)c(F)c1Nc1ccc(I)cc1F)N1CC(O)([C@@H]2CCCCN2)C1 [Cobimetinib]
pERK immunofluorescence normalised
Conditions | EGF 0 ng/mL | EGF 100 ng/mL
drug A concentration 0 µM, drug B concentration 31.62 pM | 1.06 | 0.985
drug A concentration 0 µM, drug B concentration 0.0001 µM | 1.04 | 0.985
drug A concentration 0 µM, drug B concentration 0.000316228 µM | 1.08 | 0.976
drug A concentration 0 µM, drug B concentration 0.001 µM | 0.997 | 0.964
drug A concentration 0 µM, drug B concentration 0.00316228 µM | 0.841 | 0.85
drug A concentration 0 µM, drug B concentration 0.01 µM | 0.546 | 0.726
drug A concentration 0 µM, drug B concentration 0.0316228 µM | 0.29 | 0.564
drug A concentration 0 µM, drug B concentration 0.1 µM | 0.243 | 0.541
drug A concentration 0 µM, drug B concentration 0.316228 µM | 0.235 | 0.428
drug A concentration 0 µM, drug B concentration 1 µM | 0.235 | 0.278
drug A concentration 0.0001 µM, drug B concentration 0 µM | 1.07 | 0.987
drug A concentration 0.0001 µM, drug B concentration 31.62 pM | 0.993 | 0.987
drug A concentration 0.0001 µM, drug B concentration 0.0001 µM | 1.05 | 1.01
drug A concentration 0.0001 µM, drug B concentration 0.000316228 µM | 1.01 | 0.946
drug A concentration 0.0001 µM, drug B concentration 0.001 µM | 0.966 | 0.944
drug A concentration 0.0001 µM, drug B concentration 0.00316228 µM | 0.816 | 0.848
drug A concentration 0.0001 µM, drug B concentration 0.01 µM | 0.498 | 0.692
drug A concentration 0.0001 µM, drug B concentration 0.0316228 µM | 0.284 | 0.606
drug A concentration 0.0001 µM, drug B concentration 0.1 µM | 0.242 | 0.545
drug A concentration 0.0001 µM, drug B concentration 0.316228 µM | 0.234 | 0.416
drug A concentration 0.0001 µM, drug B concentration 1 µM | 0.233 | 0.259
drug A concentration 0.000316228 µM, drug B concentration 0 µM | 1.05 | 1.03
drug A concentration 0.000316228 µM, drug B concentration 31.62 pM | 0.999 | 1.03
drug A concentration 0.000316228 µM, drug B concentration 0.0001 µM | 1.02 | 1.03
drug A concentration 0.000316228 µM, drug B concentration 0.000316228 µM | 1.01 | 0.998
drug A concentration 0.000316228 µM, drug B concentration 0.001 µM | 0.945 | 0.935
drug A concentration 0.000316228 µM, drug B concentration 0.00316228 µM | 0.829 | 0.882
drug A concentration 0.000316228 µM, drug B concentration 0.01 µM | 0.517 | 0.722
drug A concentration 0.000316228 µM, drug B concentration 0.0316228 µM | 0.298 | 0.611
drug A concentration 0.000316228 µM, drug B concentration 0.1 µM | 0.245 | 0.533
drug A concentration 0.000316228 µM, drug B concentration 0.316228 µM | 0.233 | 0.352
drug A concentration 0.000316228 µM, drug B concentration 1 µM | 0.233 | 0.234
drug A concentration 0.001 µM, drug B concentration 0 µM | 1.02 | 1
drug A concentration 0.001 µM, drug B concentration 31.62 pM | 0.985 | 0.999
drug A concentration 0.001 µM, drug B concentration 0.0001 µM | 1 | 0.937
drug A concentration 0.001 µM, drug B concentration 0.000316228 µM | 1.02 | 0.923
drug A concentration 0.001 µM, drug B concentration 0.001 µM | 0.892 | 0.935
drug A concentration 0.001 µM, drug B concentration 0.00316228 µM | 0.807 | 0.832
drug A concentration 0.001 µM, drug B concentration 0.01 µM | 0.498 | 0.709
drug A concentration 0.001 µM, drug B concentration 0.0316228 µM | 0.288 | 0.558
drug A concentration 0.001 µM, drug B concentration 0.1 µM | 0.238 | 0.444
drug A concentration 0.001 µM, drug B concentration 0.316228 µM | 0.233 | 0.258
drug A concentration 0.001 µM, drug B concentration 1 µM | 0.232 | 0.218
drug A concentration 0.00316228 µM, drug B concentration 0 µM | 0.921 | 0.917
drug A concentration 0.00316228 µM, drug B concentration 31.62 pM | 0.894 | 0.899
drug A concentration 0.00316228 µM, drug B concentration 0.0001 µM | 0.938 | 0.957
drug A concentration 0.00316228 µM, drug B concentration 0.000316228 µM | 0.912 | 0.905
drug A concentration 0.00316228 µM, drug B concentration 0.001 µM | 0.817 | 0.849
drug A concentration 0.00316228 µM, drug B concentration 0.00316228 µM | 0.675 | 0.753
drug A concentration 0.00316228 µM, drug B concentration 0.01 µM | 0.432 | 0.595
drug A concentration 0.00316228 µM, drug B concentration 0.0316228 µM | 0.275 | 0.439
drug A concentration 0.00316228 µM, drug B concentration 0.1 µM | 0.237 | 0.309
drug A concentration 0.00316228 µM, drug B concentration 0.316228 µM | 0.231 | 0.225
drug A concentration 0.00316228 µM, drug B concentration 1 µM | 0.232 | 0.214
drug A concentration 0.01 µM, drug B concentration 0 µM | 0.728 | 0.795
drug A concentration 0.01 µM, drug B concentration 31.62 pM | 0.777 | 0.778
drug A concentration 0.01 µM, drug B concentration 0.0001 µM | 0.787 | 0.8
drug A concentration 0.01 µM, drug B concentration 0.000316228 µM | 0.745 | 0.753
drug A concentration 0.01 µM, drug B concentration 0.001 µM | 0.613 | 0.674
drug A concentration 0.01 µM, drug B concentration 0.00316228 µM | 0.495 | 0.622
drug A concentration 0.01 µM, drug B concentration 0.01 µM | 0.31 | 0.454
drug A concentration 0.01 µM, drug B concentration 0.0316228 µM | 0.247 | 0.333
drug A concentration 0.01 µM, drug B concentration 0.1 µM | 0.24 | 0.245
drug A concentration 0.01 µM, drug B concentration 0.316228 µM | 0.231 | 0.216
drug A concentration 0.01 µM, drug B concentration 1 µM | 0.231 | 0.212
drug A concentration 0.0316228 µM, drug B concentration 0 µM | 0.503 | 0.601
drug A concentration 0.0316228 µM, drug B concentration 31.62 pM | 0.461 | 0.56
drug A concentration 0.0316228 µM, drug B concentration 0.0001 µM | 0.488 | 0.582
drug A concentration 0.0316228 µM, drug B concentration 0.000316228 µM | 0.466 | 0.546
drug A concentration 0.0316228 µM, drug B concentration 0.001 µM | 0.385 | 0.524
drug A concentration 0.0316228 µM, drug B concentration 0.00316228 µM | 0.314 | 0.441
drug A concentration 0.0316228 µM, drug B concentration 0.01 µM | 0.258 | 0.351
drug A concentration 0.0316228 µM, drug B concentration 0.0316228 µM | 0.239 | 0.263
drug A concentration 0.0316228 µM, drug B concentration 0.1 µM | 0.234 | 0.223
drug A concentration 0.0316228 µM, drug B concentration 0.316228 µM | 0.231 | 0.212
drug A concentration 0.0316228 µM, drug B concentration 1 µM | 0.231 | 0.218
drug A concentration 0.1 µM, drug B concentration 0 µM | 0.301 | 0.436
drug A concentration 0.1 µM, drug B concentration 31.62 pM | 0.293 | 0.419
drug A concentration 0.1 µM, drug B concentration 0.0001 µM | 0.302 | 0.422
drug A concentration 0.1 µM, drug B concentration 0.000316228 µM | 0.286 | 0.399
drug A concentration 0.1 µM, drug B concentration 0.001 µM | 0.273 | 0.373
drug A concentration 0.1 µM, drug B concentration 0.00316228 µM | 0.251 | 0.347
drug A concentration 0.1 µM, drug B concentration 0.01 µM | 0.238 | 0.281
drug A concentration 0.1 µM, drug B concentration 0.0316228 µM | 0.232 | 0.233
drug A concentration 0.1 µM, drug B concentration 0.1 µM | 0.231 | 0.215
drug A concentration 0.1 µM, drug B concentration 0.316228 µM | 0.23 | 0.211
drug A concentration 0.1 µM, drug B concentration 1 µM | 0.231 | 0.211
drug A concentration 0.316228 µM, drug B concentration 0 µM | 0.246 | 0.336
drug A concentration 0.316228 µM, drug B concentration 31.62 pM | 0.248 | 0.325
drug A concentration 0.316228 µM, drug B concentration 0.0001 µM | 0.25 | 0.339
drug A concentration 0.316228 µM, drug B concentration 0.000316228 µM | 0.246 | 0.317
drug A concentration 0.316228 µM, drug B concentration 0.001 µM | 0.245 | 0.298
drug A concentration 0.316228 µM, drug B concentration 0.00316228 µM | 0.238 | 0.272
drug A concentration 0.316228 µM, drug B concentration 0.01 µM | 0.235 | 0.234
drug A concentration 0.316228 µM, drug B concentration 0.0316228 µM | 0.232 | 0.216
drug A concentration 0.316228 µM, drug B concentration 0.1 µM | 0.232 | 0.211
drug A concentration 0.316228 µM, drug B concentration 0.316228 µM | 0.23 | 0.211
drug A concentration 0.316228 µM, drug B concentration 1 µM | 0.231 | 0.212
drug A concentration 1 µM, drug B concentration 0 µM | 0.239 | 0.26
drug A concentration 1 µM, drug B concentration 31.62 pM | 0.24 | 0.254
drug A concentration 1 µM, drug B concentration 0.0001 µM | 0.248 | 0.252
drug A concentration 1 µM, drug B concentration 0.000316228 µM | 0.238 | 0.246
drug A concentration 1 µM, drug B concentration 0.001 µM | 0.237 | 0.242
drug A concentration 1 µM, drug B concentration 0.00316228 µM | 0.236 | 0.246
drug A concentration 1 µM, drug B concentration 0.01 µM | 0.235 | 0.217
drug A concentration 1 µM, drug B concentration 0.0316228 µM | 0.233 | 0.223
drug A concentration 1 µM, drug B concentration 0.1 µM | 0.234 | 0.212
drug A concentration 1 µM, drug B concentration 0.316228 µM | 0.233 | 0.21
drug A concentration 1 µM, drug B concentration 1 µM | 0.234 | 0.217
drug A concentration 3.16228 µM, drug B concentration 0 µM | 0.245 | 0.227
drug A concentration 3.16228 µM, drug B concentration 31.62 pM | 0.243 | 0.224
drug A concentration 3.16228 µM, drug B concentration 0.0001 µM | 0.243 | 0.224
drug A concentration 3.16228 µM, drug B concentration 0.000316228 µM | 0.242 | 0.228
drug A concentration 3.16228 µM, drug B concentration 0.001 µM | 0.241 | 0.219
drug A concentration 3.16228 µM, drug B concentration 0.00316228 µM | 0.24 | 0.215
drug A concentration 3.16228 µM, drug B concentration 0.01 µM | 0.237 | 0.214
drug A concentration 3.16228 µM, drug B concentration 0.0316228 µM | 0.239 | 0.214
drug A concentration 3.16228 µM, drug B concentration 0.1 µM | 0.238 | 0.218
drug A concentration 3.16228 µM, drug B concentration 0.316228 µM | 0.238 | 0.213
drug A concentration 3.16228 µM, drug B concentration 1 µM | 0.239 | 0.215
